Format in all cases: cell-based
Data set [1] relates to P. aeruginosa R590. Kind of data set: Individual antibacterial activity (MIC) of adjuvants. The conditions noted are these: adjuvant alone; P. aeruginosa R590. As to the method: (§1) The combination efficacy with antibiotics from different classes and individual antibacterial activity of the synthesized adjuvants was evaluated against the above mentioned MDR and NDM-1 strains of Gram-negative bacteria. All the bacteria were grown in peptone. The bacterial samples were freeze dried and stored at −80° C. 3 μl of these stocks were added to 3 mL of peptone and the culture was grown for 6 h at 37° C. prior to the experiments.
(§2) All synthesized compounds were assayed for their antibacterial activity in combination with antibiotics in a modified chequerboard micro-dilution broth format. Stock solutions were made by serially diluting the compounds using autoclaved millipore water. The bacterial freeze dried stock samples were stored at −80° C. About 3 μL of these stocks were added to about 3 mL of the respective broth and the culture was grown for about 6 h at about 37° C. with prior to the experiments. This 6 h grown culture gives about 10^8 cfu/mL in case of A. baumannii R674, P. aeruginosa R590, E. coli R3336 and K. pneumoniae R3934 which were determined by spread plating method. This 6 h grown culture was diluted to give effective cell concentration of 10^5 cfu/mL, and then used for the chequerboard assay. Adjuvants and antibiotics were serially diluted in two-fold, in sterile millipore water. 25 μL of these serial dilutions of the antibiotics and 25 μL of compounds were added to the wells of 96 well plate followed by the addition of about 150 μL of bacterial solution (˜10^5 cfu/mL). The plates were then incubated at about 37° C., 150 rpm in the incubator and O.D at 600 nm was recorded at 24 h using TECAN (Infinite series, M200 pro) Plate Reader. The wells with similar OD as the media control contained the required concentration of the antibiotic and adjuvant for antibacterial efficacy. The potentiation ability of the adjuvants was determined by calculating the potentiation factor and the Fractional Inhibitory concentration (FIC) index. Fractional Inhibitory Concentration (FIC) is expressed as, FIC=[X]/MICX, where [X] is the lowest inhibitory concentration of antibiotic in the presence of the adjuvant. Whereas FIC index is expressed as, FICI=FICantibiotic+FICadjuvant. The values of FIC index give an insight about the nature of the combination. Potentiation factor which means fold-reduction in the MIC of the antibiotic, when used in combination with the adjuvant was also determined. Potentiation factor=[Minimum inhibitory concentration (MIC) of antibiotic in absence of adjuvant]/[MIC of antibiotic in presence of adjuvant]. […] The combination efficacies of adjuvants with various antibiotics are furnished in Table 1. It should be noted that various other resistant strains of bacteria (Gram-positive and Gram-negative) can be tested with a number of other antibiotics to check the potentiation capacity of the adjuvants.

The test system of data set [2] is A. baumannii R674. The description is as above. The note with it: adjuvant alone; A. baumannii R674. As to the method: as §1, §2
In the next data set the test system is human RBCs. Kind of data set: Haemolytic activity. The note with it: concentration at which 50% of human blood cells are lysed; 1 h at 37° C. The protocol: Erythrocytes were isolated from freshly drawn, heparanized human blood and re-suspended to 5 vol % in PBS (pH 7.4). In a 96-well microtiter plate, 150 μl of erythrocyte suspension was added to 50 μl of serially diluted compound. Two controls were made, one without compound and other with 50 μl of 1 vol % solution of Triton X-100. The plate was incubated for 1 h at 37° C. The plate was then centrifuged at 3,500 rpm for 5 min, 100 μl of the supernatant from each well was transferred to a fresh 96-well microtiter plate, and A540 was measured. Percentage of hemolysis was determined as (A−A0)/(Atotal−A0)×100, where A is the absorbance of the test well, A0 the absorbance of the negative controls (without compound), and Atotal the absorbance of 100% hemolysis wells (with Triton X-100), all at 540 nm.
Toxicity studies of the compounds were done on freshly drawn human RBCs. Toxicity of the compounds were defined by their HC50 values (Table 2), i.e. the concentration of compound at which 50% of the blood cells are lysed.

In data set [3] the test system is P. aeruginosa R590. Kind of data set: Chequerboard combination efficacy of adjuvant with antibiotics. The note with it: P. aeruginosa R590. The protocol: (§3) All the solvents were of reagent grade, which were distilled and dried before its use. All the reagents were purchased from Sigma-Aldrich, Alfa-Aesar, S.D. Fine, Avra and Spectrochem, and were used without further purification. Analytical thin layer chromatography (TLC) was performed on E. Merck TLC plates pre-coated with silica gel 60 F254 and visualization was carried out using UV light and Iodine. Column chromatography was performed on silica gel (60-120 mesh) using different ratio of chloroform and methanol solvent system. Nuclear magnetic resonance spectra were recorded on Bruker (AV-400) 400 MHz spectrometer in deuterated solvents. Mass spectra were obtained using 6538-UHD Accurate mass Q-TOF LC-MS instrument. For optical density measurement during bacteriology experiments, Tecan Infinite Pro series M200 Microplate Reader was used. Bacterial strains, A. baumannii (R674), P. aeruginosa (R590), E. coli (R3336) and K. pneumoniae (R3934) were used for the studies.
as §1, §2

Data set [4] concerns A. baumannii R674. Described as above. As to the method:
as §3, §1, §2

For `NCCCC[C@H](N)C(=O)NCCCN(CCCNC(=O)[C@@H](N)CCCCN)C(=O)CC(c1ccccc1)c1ccccc1` [Compound 8, N,N-bis-[(6-(^LLys)amido)propyl] 3,3-diphenyl propanamide tetrakis(trifluoroacetate)], the “MIC against clinical isolates of bacteria” value (from here on “MIC … of bacteria”) with P. aeruginosa R590 [1] and with A. baumannii R674 [2] was >512 µg/mL throughout. In the data set on human RBCs, the HC50 was >1024 µg/mL. The values for the FICI in the data set with P. aeruginosa R590 [3] (antibiotic Rifampicin), with P. aeruginosa R590 [3] (antibiotic Tetracycline) and in the data set with A. baumannii R674 [4] (antibiotic Rifampicin) were <0.14, <0.375 and <0.19, respectively. Besides, the “MIC of antibiotic in presence of adjuvant” value (“MIC of antibiotic” below) with P. aeruginosa R590 [3] (antibiotic Rifampicin) is 2 µg/mL; in the data set with P. aeruginosa R590 [3] (antibiotic Tetracycline), 64 µg/mL; with A. baumannii R674 [4] (antibiotic Rifampicin) it was 4 µg/mL; in the data set with A. baumannii R674 [4] (antibiotic Tetracycline) it was >64 µg/mL. Moreover, the Potentiation factor with P. aeruginosa R590 [3] (antibiotic Rifampicin) is reported as 64; with P. aeruginosa R590 [3] (antibiotic Tetracycline) it was 4; in the data set with A. baumannii R674 [4] (antibiotic Rifampicin), 16; in the data set with A. baumannii R674 [4] (antibiotic Tetracycline), <2.
In the case of `NCCCC[C@H](N)C(=O)NCCCN(CCCNC(=O)[C@@H](N)CCCCN)CC(=O)NC1C2CC3CC(C2)CC1C3.O=C(O)C(F)(F)F.O=C(O)C(F)(F)F.O=C(O)C(F)(F)F.O=C(O)C(F)(F)F.O=C(O)C(F)(F)F` (stereo partly shown) [Compound 9], the “MIC … of bacteria” value in the data set on P. aeruginosa R590 [1] and in the data set with A. baumannii R674 [2] was >512 µg/mL in each case. Further, the HC50 in the data set on human RBCs is >1024 µg/mL. Also, the FICI is on record as <0.13 in the data set on P. aeruginosa R590 [3] (antibiotic Rifampicin), <0.19 in the data set with P. aeruginosa R590 [3] (antibiotic Tetracycline), <0.14 with A. baumannii R674 [4] (antibiotic Rifampicin) and <0.25 in the data set on A. baumannii R674 [4] (antibiotic Tetracycline). The “MIC of antibiotic” value in the data set with P. aeruginosa R590 [3] (antibiotic Rifampicin) stood at 0.5 µg/mL; with P. aeruginosa R590 [3] (antibiotic Tetracycline), 16 µg/mL; with A. baumannii R674 [4] (antibiotic Rifampicin) it was 1 µg/mL; with A. baumannii R674 [4] (antibiotic Tetracycline) it was 16 µg/mL. Further, the Potentiation factor amounted to 256 in the data set on P. aeruginosa R590 [3] (antibiotic Rifampicin), 16 with P. aeruginosa R590 [3] (antibiotic Tetracycline), 64 in the data set on A. baumannii R674 [4] (antibiotic Rifampicin) and 8 in the data set on A. baumannii R674 [4] (antibiotic Tetracycline).
With `NCCCCCCN(CCCCCCN)C(=O)Cc1cccc2ccccc12` [Compound 10, N,N-bis-[(6-amino)hexyl] naphthyl ethanamide bistrifluoroacetate], the “MIC … of bacteria” value in the data set with P. aeruginosa R590 [1] and with A. baumannii R674 [2] was >512 µg/mL in each case. In addition, in the data set with human RBCs, the HC50 was >1024 µg/mL. The FICI in the data set on P. aeruginosa R590 [3] (antibiotic Rifampicin) is <0.133; with P. aeruginosa R590 [3] (antibiotic Tetracycline) it was <0.375; in the data set with A. baumannii R674 [4] (antibiotic Rifampicin) it was <0.14; with A. baumannii R674 [4] (antibiotic Tetracycline) it was <0.375. For the same compound, the “MIC of antibiotic” value worked out at 1 µg/mL with P. aeruginosa R590 [3] (antibiotic Rifampicin), 32 µg/mL in the data set with P. aeruginosa R590 [3] (antibiotic Tetracycline), 1 µg/mL in the data set on A. baumannii R674 [4] (antibiotic Rifampicin) and 16 µg/mL in the data set with A. baumannii R674 [4] (antibiotic Tetracycline). The Potentiation factor in the data set on P. aeruginosa R590 [3] (antibiotic Rifampicin) is listed as 128; in the data set with P. aeruginosa R590 [3] (antibiotic Tetracycline), 8; with A. baumannii R674 [4] (antibiotic Rifampicin), 64; in the data set with A. baumannii R674 [4] (antibiotic Tetracycline), 8.
In the case of `NCCCCCCN(CCCCCCN)C(=O)CC(c1ccccc1)c1ccccc1.O=C(O)C(F)(F)F.O=C(O)C(F)(F)F` [Compound 11, N,N-bis-[(6-amino)hexyl] 3,3-diphenyl propanamide bistrifluoroacetate], the “MIC … of bacteria” value with P. aeruginosa R590 [1] was 256 µg/mL; in the data set with A. baumannii R674 [2], 128 µg/mL. In addition, in the data set on human RBCs, the 50% haemolytic concentration (HC50) was >1024 µg/mL. Also, the FICI in the data set on P. aeruginosa R590 [3] (antibiotic Rifampicin) was 0.07; in the data set with P. aeruginosa R590 [3] (antibiotic Tetracycline), 0.375; in the data set with A. baumannii R674 [4] (antibiotic Rifampicin) it was 0.1328; in the data set on A. baumannii R674 [4] (antibiotic Tetracycline) it was 1. In addition, the “MIC of antibiotic” value with P. aeruginosa R590 [3] (antibiotic Rifampicin) is 1 µg/mL; in the data set with P. aeruginosa R590 [3] (antibiotic Tetracycline), 32 µg/mL; with A. baumannii R674 [4] (antibiotic Rifampicin), 0.5 µg/mL; in the data set with A. baumannii R674 [4] (antibiotic Tetracycline) it was 64 µg/mL. Further, the Potentiation factor is 8 in the data set with P. aeruginosa R590 [3] (antibiotic Tetracycline), 128 with A. baumannii R674 [4] (antibiotic Rifampicin) and 2 in the data set on A. baumannii R674 [4] (antibiotic Tetracycline).
Turning to `NCCCCCCN(CCCCCCN)CC(=O)NC1C2CC3CC(C2)CC1C3.O=C(O)C(F)(F)F.O=C(O)C(F)(F)F.O=C(O)C(F)(F)F` (stereo not shown) [Compound 12, N-(adamantan-2-yl)-2-[N′,N′-{bis-(6-amino)hexyl}amino] ethanamide tristrifluoroacetate], the “MIC … of bacteria” value in the data set on P. aeruginosa R590 [1] and in the data set with A. baumannii R674 [2] was 64 µg/mL throughout. Also, the 50% haemolytic concentration (HC50) in the data set with human RBCs was >1024 µg/mL. The FICI in the data set on P. aeruginosa R590 [3] (antibiotic Rifampicin) is listed as 0.251; in the data set with P. aeruginosa R590 [3] (antibiotic Tetracycline), 0.75; in the data set on A. baumannii R674 [4] (antibiotic Rifampicin), <0.252; in the data set with A. baumannii R674 [4] (antibiotic Tetracycline) it was 0.625. Further, the “MIC of antibiotic” value is 0.125 µg/mL with P. aeruginosa R590 [3] (antibiotic Rifampicin), 64 µg/mL in the data set with P. aeruginosa R590 [3] (antibiotic Tetracycline), <0.125 µg/mL with A. baumannii R674 [4] (antibiotic Rifampicin) and 16 µg/mL in the data set on A. baumannii R674 [4] (antibiotic Tetracycline). Further, the Potentiation factor in the data set with P. aeruginosa R590 [3] (antibiotic Rifampicin) is 1024; in the data set with P. aeruginosa R590 [3] (antibiotic Tetracycline) it was 4; with A. baumannii R674 [4] (antibiotic Rifampicin), >512; in the data set with A. baumannii R674 [4] (antibiotic Tetracycline), 8.

What is called HC50 is the concentration that lyses half of the red blood cells. Read a high HC50 as weaker haemolysis.
